# Patent US6537994B2, “Heterocyclic β3 adrenergic receptor agonists” (Wyeth, priority 2000, dated 2003)
# pEC50: −log10 of the molar value. Where “and” joins values, the source holds several entries; their conditions need not be identical. Equal values may be shown once.
# Tests used:
# human β3-AR = biological target: T1, human β3-AR (Homo sapiens, UniProt P13945); test: cAMP accumulation (SPA) in CHO cells transfected with human β3 adrenergic receptor; format: cell-based; settings: for pEC50: CHO cells expressing human β3-AR, cAMP, 30 min incubation, 10^−9 M to 10^−5 M; for IA(β3): maximal response, IA=% activity compound/% activity isoproterenol at 10^−5 M
# T1 construct: Full length β3 AR clones (402 amino acids) containing the last 6 amino acids of hβ3-AR; expressed in transfected cells; host or cells: CHO cells
# Description: The ability of compounds of this invention to treat or inhibit disorders related to insulin resistance or hyperglycemia was confirmed with representative compounds of this invention in the following standard pharmacological test procedures, which measured the binding selectivity to the β1, β2, and β3 adrenergic receptors. Binding to the receptors was measured in Chinese Hamster ovary (CHO) cells that were transfected with adrenergic receptors. The following briefly summarizes the procedures used and results obtained.
# Cloning of Human β3-AR Genomic DNA: cDNA was constructed by ligating four polymerase chain reaction (PCR) products using the following primers: an ATG-Narl fragment, sense primer 5′-[…]3′ and anti-sense primer 5′[…]3′; a Narl-Accl fragment, 5′[…]3′ as sense and 5′[…]3′ as anti-sense primer; an Accli-Styl fragment, sense primer 5′[…]3′ and anti-sense primer 5′[…]3′ and a Styl-TAG fragment, with sense primer 5′[…]3′ and anti-sense primer 5′[…]3′. The corresponding primer sequences are described in Mantzoros, C. S., et. al., Diabetes 45: 909-914 (1996). The four fragments are ligated into a pUC 18 plasmid (Gibco-BRL) and sequenced. Full length β3 AR clones (402 amino acids) containing the last 6 amino acids of hβ3-AR are prepared with the β3-βARpcDNA3 from ATTC.
# Binding Procedure: Clones expressing receptor levels of 70 to 110 fmoles/mg protein were used in the test procedures. CHO cells were grown in 24-well tissue culture plates in Dulbecco's Modified Eagle Media with 10% fetal bovine serum, MEM non-essential amino acids, Penicillin-Streptompycin and Geneticin. On the day of test procedure, growth medium was replaced with preincubation media (Dulbecco's Modified Eagle Media and incubated for 30 minutes at 37° C. Preincubation medium was replaced with 0.2 ml treatment medium containing DMEM media containing 250 μM IBMX (isobutyl-1-methylxantine) plus 1 mM ascorbic acid with test compound dissolved in DMSO. Test compounds were tested over a concentration range of 10^−9 M to 10^−5 M for β3 cells and 10^−8 to 10^−4 M for β1 and β2 transfected cells. Isoproterenol (10^−5 M) was used as an internal standard for comparison of activity. Cells were incubated at 37° C. on a rocker for 30 min with the β3 cells and 15 min for β1 and β2 cells. Incubation was stopped with the addition of 0.2N HCl and neutralized with 2.5N NaOH. The plates, containing the cells and neutralized media, were stored at −20 degrees celsius until ready to test for cAMP using the SPA test kit (Amersham).
# Data Analysis and Results: Data collected from the SPA test procedure were analyzed as per cent of the maximal isoproterenol response at 10^−5 M. Activity curves were plotted using the SAS statistical and graphics software.
# IA=% activity compound/% activity isoproterenol
# T1 sequence (P13945 whole entry): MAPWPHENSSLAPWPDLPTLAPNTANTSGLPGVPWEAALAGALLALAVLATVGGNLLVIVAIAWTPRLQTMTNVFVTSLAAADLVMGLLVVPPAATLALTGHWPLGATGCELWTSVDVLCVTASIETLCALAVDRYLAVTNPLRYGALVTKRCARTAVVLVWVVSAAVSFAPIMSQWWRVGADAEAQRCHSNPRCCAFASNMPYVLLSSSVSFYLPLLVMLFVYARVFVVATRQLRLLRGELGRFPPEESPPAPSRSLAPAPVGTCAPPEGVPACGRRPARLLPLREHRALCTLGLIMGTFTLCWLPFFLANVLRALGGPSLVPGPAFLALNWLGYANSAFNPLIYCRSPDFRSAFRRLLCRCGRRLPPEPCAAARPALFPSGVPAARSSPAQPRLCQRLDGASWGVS
SMILES,pEC50 (human β3-AR),IA(β3) (human β3-AR),melting point
"O=C(Nc1cccnc1Nc1ccc(CCNC[C@H](O)COc2ccc(O)cc2)cc1)c1ccccc1 [Example 6, N-[2-(4-{2-[(2S)-2-Hydroxy-3-(4-hydroxy-phenoxy)-propylamino]-ethyl}-phenylamino)-pyridin-3-yl]-benzamide]",7.08,0.88,97 to 99 °C
"CCc1ccc(-c2nc3cccnc3n2-c2ccc(CCNC[C@H](O)COc3ccc(O)cc3)cc2)cc1 [Example 8, 4-[(2S)-3-(2-{4-[2-(4-Ethyl-phenyl)-imidazo[4,5-b]pyridin-3-yl]-phenyl}-ethylamino)-2-hydroxy-propoxy]-phenol]",8.22,1.03,75 to 78 °C
"Nc1cccnc1Oc1ccc(CCNC[C@H](O)COc2ccc(O)cc2)cc1 [Example 5, 4-((2S)-3-{2-[4-(3-Amino-pyridin-2-yloxy)-phenyl]-ethylamino}-2-hydroxy-propoxy)-phenol]",7.70,1.12,–
"CCCCCc1nc2cccnc2n1-c1ccc(CCNC[C@H](O)COc2cccc3[nH]c(=O)[nH]c23)cc1 [Example 13, 4-((2S)-2-Hydroxy-3-{2-[4-(2-pentyl-imidazo[4,5-b]pyridin-3-yl)-phenyl]-ethylaminol}-propoxy)-1,3-dihydro-benzoimidazol-2-one]",7.34,0.087,–
"CCCCCCNC(=O)Nc1cccc(-c2nc3cccnc3n2-c2ccc(CCNCC(O)COc3ccc(O)cc3)cc2)c1 (stereo not drawn) (hydrate or solvate) [Example 16, 1-Hexyl-3-{3-[3-(4-{2-[2-hydroxy-3-(4-hydroxy-phenoxy)-propylamino]-ethyl}-phenyl)-3H-imidazo[4,5-b]pyridin-2-yl]-phenyl}-urea]",–,–,93 to 95 °C
"Nc1cccnc1Nc1ccc(CCNCC(O)COc2ccc(O)cc2)cc1 (stereo in doubt) [Example 2, 4-((2R)-3-{2-[4-(3-Amino-pyridin-2-ylamino)-phenyl]-ethylamino}-2-hydroxy-propoxy)-phenol]",7.14,1.01,–
"Cc1ccn(-c2ccc(-c3nc4cccnc4n3-c3ccc(CCNCC(O)COc4ccc(O)cc4)cc3)c(Cl)c2)n1 (stereo not drawn) [Example 14, 4-{3-[2-(4-{2-[2-Chloro-4-(3-methyl-pyrazol-1-yl)-phenyl]-imidazo[4,5-b]pyridin-3-yl}-phenyl)-ethylamino]-2-hydroxy-propoxy}-phenol]",7.27,0.086,87 to 89 °C
"O=[N+]([O-])c1cccnc1Nc1ccc(CCNC[C@H](O)COc2ccc(O)cc2)cc1 (hydrate or solvate) [Example 1, 4-((2S)-2-Hydroxy-3-{2-[4-(3-nitro-pyridin-2-ylamino)-phenyl]-ethylamino}-propoxy)-phenol]",–,–,148 to 149 °C
"O=c1[nH]c2cccc(OCC(O)CNCCc3ccc(-n4c(CCC5CCCC5)nc5cccnc54)cc3)c2[nH]1 (stereo not drawn) [Example 12, 4-[3-(2-{4-[2-(2-Cyclopentyl-ethyl)-imidazo[4,5-b]pyridin-3-yl]-phenyl}-ethylamino) -2-hydroxy-propoxy]-1,3-dihydro-benzoimidazol-2-one]",8.30 and 7.82,–,115 to 117 °C
"CCCCCCNC(=O)Nc1ccc(-c2nc3cccnc3n2-c2ccc(CCNC[C@H](O)COc3ccc(O)cc3)cc2)cc1 (hydrate or solvate) [Example 15, N-hexyl-N′-(4-{3-[4-(2-{[(2S)-2-hydroxy-3-(4-hydroxyphenoxy)propyl]amino}ethyl)phenyl]-3H-imidazo[4,5-b]pyridin-2-yl}phenyl)urea]",–,–,110 to 116 °C
"Oc1ccc(OC[C@@H](O)CNCCc2ccc(-n3cnc4cccnc43)cc2)cc1 (hydrate or solvate) [Example 3, 4-{(2S)-2-Hydroxy-3-[2-(4-imidazo[4,5-b]pyridin-3-yl-phenyl)-ethylamino]-propoxy}-phenol]",–,–,49 to 52 °C
"CCCCCCNC(=O)Nc1cccnc1Nc1ccc(CCNC[C@H](O)COc2ccc(O)cc2)cc1 [Example 4, 1-Hexyl-3-[2-(4-{2-[(2S)-2-hydroxy-3-(4-hydroxy-phenoxy)-propylamino]-ethyl}-phenylamino)-pyridin-3-yl]-urea]",–,–,61 to 64 °C
"Nc1cccnc1Nc1ccc(CCNC[C@H](O)COc2ccc(O)cc2)cc1 (hydrate or solvate) [Example 2, 4-((2R)-3-{2-[4-(3-Amino-pyridin-2-ylamino)-phenyl]-ethylamino}-2-hydroxy-propoxy)-phenol]",–,–,63 to 65 °C
"CCCCCCNC(=O)Nc1ccc(CCc2nc3cccnc3n2-c2ccc(CCNC[C@H](O)COc3ccc(O)cc3)cc2)cc1 (hydrate or solvate) [Example 17, 1-Hexyl-3-(4-{2-[3-(4-{2-[(2S)-2-hydroxy-3-(4-hydroxy-phenoxy)-propylamino]-ethyl}-phenyl)-3H-imidazo[4,5-b]pyridin-2-yl]-ethyl}-phenyl)-urea]",–,–,90 to 92 °C
"Oc1ccc(OC[C@@H](O)CNCCc2ccc(-n3c(-c4ccc(C5CCCCC5)cc4)nc4cccnc43)cc2)cc1 [Example 10, 4-[(2S)-3-(2-{4-[2-(4-Cyclohexyl-phenyl)-imidazo[4,5-b]pyridin-3-yl]-phenyl}-ethylamino)-2-hydroxy-propoxy]-phenol]",8.22,0.96,100 to 102 °C
"Oc1ccc(OC[C@@H](O)CNCCc2ccc(-n3c(CCC4CCCC4)nc4cccnc43)cc2)cc1 [Example 11, 4-[(2S)-3-(2-{4-[2-(2-Cyclopentyl-ethyl)-imidazo[4,5-b]pyridin-3-yl]-phenyl}-ethylamino)-2-hydroxy-propoxy]-phenol]",8.00,0.86,59 to 61 °C
"CCCCCCNC(=O)Nc1ccc(-c2nc3cccnc3n2-c2ccc(CCNC[C@H](O)COc3ccc(O)cc3)cc2)cc1 [Example 15, N-hexyl-N′-(4-{3-[4-(2-{[(2S)-2-hydroxy-3-(4-hydroxyphenoxy)propyl]amino}ethyl)phenyl]-3H-imidazo[4,5-b]pyridin-2-yl}phenyl)urea]",7.15,1.05,–
"Oc1ccc(OC[C@@H](O)CNCCc2ccc(-n3cnc4cccnc43)cc2)cc1 [Example 3, 4-{(2S)-2-Hydroxy-3-[2-(4-imidazo[4,5-b]pyridin-3-yl-phenyl)-ethylamino]-propoxy}-phenol]",7.02,0.76,–
"O=[N+]([O-])c1cccnc1Nc1ccc(CCNC[C@H](O)COc2ccc(O)cc2)cc1 [Example 1, 4-((2S)-2-Hydroxy-3-{2-[4-(3-nitro-pyridin-2-ylamino)-phenyl]-ethylamino}-propoxy)-phenol]",6.49,0.65,–
"CCCCCc1nc2cccnc2n1-c1ccc(CCNC[C@H](O)COc2ccc(O)cc2)cc1 [Example 9, 4-((2S)-2-Hydroxy-3-{2-[4-(2-pentyl-imidazo[4,5-b]pyridin-3-yl)-phenyl]-ethylaminol}-propoxy)-phenol]",6.58,0.74,50 to 52 °C
"C=C(C)n1c(=O)n(-c2ccc(CCNC[C@H](O)COc3ccc(O)cc3)cc2)c2ncccc21 [Example 7, 3-(4-{2-[(2S)-2-Hydroxy-3-(4-hydroxy-phenoxy)-propylamino]-ethyl}-phenyl)-1-isopropenyl-1,3-dihydro-imidazo[4,5-b]pyridin-2-one]",7.24,1.12,62 to 64 °C
